Measured values as given in EP2092824A1, “Heterocyclyl pyrimidines” (Bayer CropScience AG, priority 2008, dated 2009).

Assays:
Phaedon cochleariae = test: Phaedon test (PHAECO spray treatment); format: in vivo; details: foliar, Aufwandmenge 500 g/ha, sprayed Chinese cabbage leaf discs, larvae, 100 % = all beetle larvae killed, read-out: Wirkung
Excerpt: Phaedon-Test (PHAECO Spritzbehandlung)
(§1) Zur Herstellung einer zweckmäßigen Wirkstoffzubereitung vermischt man 1 Gewichtsteil Wirkstoff mit den angegebenen Mengen Lösungsmittel und Emulgator und verdünnt das Konzentrat mit emulgatorhaltigem Wasser auf die gewünschte Konzentration.
Chinakohlblattscheiben (Brassica pekinensis) werden mit einer Wirkstoffzubereitung der gewünschten Konzentration gespritzt und nach dem Abtrocknen mit Larven des Meerrettichblattkäfers (Phaedon cochleariae) besetzt.
Nach der gewünschten Zeit wird die Wirkung in % bestimmt. Dabei bedeutet 100 %, dass alle Käferlarven abgetötet wurden; 0 % bedeutet, dass keine Käferlarven abgetötet wurden.

Myzus persicae = test: Myzus test (MYZUPE spray treatment); format: in vivo; details: foliar, Aufwandmenge 500 g/ha, sprayed Chinese cabbage leaf discs (Brassica pekinensis) infested with all stages, 100 % = all aphids killed, read-out: Wirkung
Excerpt: Myzus-Test (MYZUPE Spritzbehandlung)
as §1
Chinakohlblattscheiben (Brassica pekinensis), die von allen Stadien der Grünen Pfirsichblattlaus (Myzus persicae) befallen sind, werden mit einer Wirkstoffzubereitung der gewünschten Konzentration gespritzt.
Nach der gewünschten Zeit wird die Wirkung in % bestimmt. Dabei bedeutet 100 %, dass alle Blattläuse abgetötet wurden; 0 % bedeutet, dass keine Blattläuse abgetötet wurden.

Puccinia recondita = test: Puccinia test (wheat) / protective; format: in vivo; details: Konzentration an Wirkstoff 500ppm, wheat plants, evaluation 7-9 days after inoculation, 100 % = no infestation
Excerpt: Puccinia-Test (Weizen) / protektiv
(§2) Zur Herstellung einer zweckmäßigen Wirkstoffzubereitung vermischt man 1 Gewichtsteil Wirkstoff mit den angegebenen Mengen Lösungsmittel und Emulgator und verdünnt das Konzentrat mit Wasser auf die gewünschte Konzentration.
Zur Prüfung auf protektive Wirksamkeit bespritzt man junge Weizenpflanzen mit der Wirkstoffzubereitung in der angegebenen Aufwandmenge. 1 Tag nach der Behandlung werden die Pflanzen mit einer Sporensuspension von Puccinia recondita inokuliert und stehen dann 48h bei 100% rel. Feuchte und 22°C. Anschließend stehen die Pflanzen bei 80% rel. Luftfeuchtigkeit und einer Temperatur von 20 °C.
7-9 Tage nach der Inokulation erfolgt die Auswertung. Dabei bedeutet 0 % ein Wirkungsgrad, der demjenigen der Kontrolle entspricht, während ein Wirkungsgrad von 100 % bedeutet, dass kein Befall beobachtet wird.

Sphaerotheca fuliginea = test: Sphaerotheca test (cucumber) / protective; format: in vivo; details: Konzentration an Wirkstoff 500ppm, cucumber plants, evaluation 7 days after inoculation, 100 % = no infestation
Excerpt: Sphaerotheca-Test (Gurke) / protektiv
as §2
Zur Prüfung auf protektive Wirksamkeit bespritzt man junge Gurkenpflanzen mit der Wirkstoffzubereitung in der angegebenen Aufwandmenge. 1 Tag nach der Behandlung werden die Pflanzen mit einer Sporensuspension von Sphaerotheca fuliginea inokuliert. Anschließend werden die Pflanzen in einem Gewächshaus bei 70 % relativer Luftfeuchtigkeit und einer Temperatur von 23 °C aufgestellt.
7 Tage nach der Inokulation erfolgt die Auswertung. Dabei bedeutet 0 % ein Wirkungsgrad, der demjenigen der Kontrolle entspricht, während ein Wirkungsgrad von 100 % bedeutet, daß kein Befall beobachtet wird.

[1] = logP determination by HPLC on reversed-phase column (EEC-Directive 79/831 Annex V.A8); format: physicochemical; details: c18 hplc, C 18 reversed phase, 43°C, LC-MS at pH 2,7 (0,1 % aqueous formic acid / acetonitrile)
Description: Die Bestimmung der in den Herstellungsbeispielen angegebenen logP-Werte erfolgte gemäß EEC-Directive 79/831 Annex V.A8 durch HPLC (High Performance Liquid Chromatography) an einer Phasenumkehrsäule (C 18). Temperatur: 43°C.
Die Bestimmung erfolgte mit der LC-MS bei pH 2,7 mit 0,1 % wässriger Ameisensäure und Acetonitril (enthält 0,1 % Ameisensäure) als Eluenten; linearer Gradient von 10 % Acetonitril bis 95 % Acetonitril.
Die Eichung erfolgte mit unverzweigten Alkan-2-onen (mit 3 bis 16 Kohlenstoffatomen), deren logP-Werte bekannt sind (Bestimmung der logP-Werte anhand der Retentionszeiten durch lineare Interpolation zwischen zwei aufeinanderfolgenden Alkanonen).

Meloidogyne incognita = test: Meloidogyne test (MELGIN spray treatment); format: in vivo; details: Aufwandmenge 4 ppm; nematicidal effect by gall formation on lettuce roots; 100 % = no galls
Excerpt: Meloidogyne-Test (MELGIN Spritzbehandlung)
Zur Herstellung einer zweckmäßigen Wirkstoffzubereitung vermischt man 1 Gewichtsteil Wirkstoff mit der angegebenen Menge Lösungsmittel und verdünnt das Konzentrat mit Wasser auf die gewünschte Konzentration.
Gefäße werden mit Sand, Wirkstofflösung, Meloidogyne incognita-Ei-Larven-Suspension und Salatsamen gefüllt. Die Salatsamen keimen und die Pflänzchen entwickeln sich. An den Wurzeln entwickeln sich die Gallen.
Nach der gewünschten Zeit wird die nematizide Wirkung an Hand der Gallenbildung in % bestimmt. Dabei bedeutet 100 %, dass keine Gallen gefunden wurden; 0 % bedeutet, dass die Zahl der Gallen an den behandelten Pflanzen der der unbehandelten Kontrolle entspricht.

Structure (SMILES) | mortality at 500 g/ha (Phaedon cochleariae) | mortality at 500 g/ha (Myzus persicae) | chromatographic logP [1] | further results
Cc1cc(C(=O)O)nn1-c1nc(Cl)c(-c2ccccc2)c(NC(C)C)n1 [X-3] | ≥ 80% | – | – | –
Cc1cc(C(=O)NS(C)(=O)=O)nn1-c1nc(Cl)c(-c2ccccc2)c(NC(C)C)n1 [I-4] | ≥ 80% | – | – | –
CC(C)Nc1nc(-n2ccc(C(=O)NS(C)(=O)=O)n2)nc(Cl)c1-c1ccccc1Cl [I-2, 1-[4-Chlor-5-(2-chlorphenyl)-6-(isopropylamino)pyrimidin-2-yl]-N-(methylsulfonyl)-1H-pyrazol-3-carboxamid] | ≥ 80% | ≥ 80% | – | Wirkungsgrad (Puccinia recondita): ≥ 70%; Wirkungsgrad (Sphaerotheca fuliginea): ≥ 70%
Cc1cc(C(=O)O)nn1-c1nc(Cl)c(-c2c(F)cc(F)cc2F)c(NC(C)C)n1 [X-5] | ≥ 80% | ≥ 80% | – | –
CC(C)Nc1nc([S+](C)[O-])nc(Cl)c1-c1ccccc1Cl (centres unmarked) [4-Chlor-5-(2-chlorphenyl)-6-(isopropylamino)-2-(methylsulfinyl)-pyrimidin] | – | – | 2.55 | –
CC(C)Nc1nc(-n2ccc(C(=O)O)n2)nc(Cl)c1-c1ccccc1Cl [X-1, 1-[4-Chlor-5-(2-chlorphenyl)-6-(isopropylamino)pyrimidin-2-yl]-1H-pyrazol-3-carbonsäure] | ≥ 80% | ≥ 80% | – | –
CSc1nc(Cl)c(-c2ccccc2Cl)c(Cl)n1 [4,6-Dichlor-5-(2-chlorphenyl)-2-(methylthio)pyrimidin] | – | – | 4.52 | –
CC(C)Nc1nc(S(C)(=O)=O)nc(Cl)c1-c1ccccc1Cl [II-1, 4-Chlor-5-(2-chlorphenyl)-6-isopropylamino-2-methylsulfonyl-pyrimidin] | – | – | 2.96 | –
Cc1cc(C(=O)NS(C)(=O)=O)nn1-c1nc(Cl)c(-c2c(F)cc(F)cc2F)c(NC(C)C)n1 [I-6] | ≥ 80% | ≥ 80% | – | –
CSc1nc(Cl)c(-c2ccccc2Cl)c(NC(C)C)n1 [4-Chlor-5-(2-chlorphenyl)-6-(isopropylamino)-2-(methylthio)-pyrimidin] | – | – | 4.52 | –
Cc1cc(C(=O)O)nn1-c1nc(Cl)c(-c2ccccc2Cl)c(NC(C)C)n1 [X-2, 1-[4-Chlor-5-(2-chlorphenyl)-6-(isopropylamino)pyrimidin-2-yl]-5-methyl-1H-pyrazol-3-carbonsäure] | ≥ 80% | ≥ 80% | – | –
Cc1cc(C(=O)NS(C)(=O)=O)nn1-c1nc(Cl)c(-c2ccccc2Cl)c(NC(C)C)n1 [I-3, 1-[4-Chlor-5-(2-chlorphenyl)-6-(isopropylamino)pyrimidin-2-yl]-5-methyl-N-(methylsulfonyl)-1H-pyrazol-3-carboxamid] | ≥ 80% | ≥ 80% | – | Wirkungsgrad (Puccinia recondita): ≥ 70%; Wirkungsgrad (Sphaerotheca fuliginea): ≥ 70%; Wirkung (Meloidogyne incognita): ≥ 80%
